# Active and inactive are the calls of the source. How the calls were made is not given here.
# Biological target: Bcl-2-related protein A1 (Homo sapiens) (UniProt Q16548)
# Assay: Bfl-1/Bim complex disruptors – biochemical, multiplexed, bead-based flow cytometry, dose response (AID 1320); further: test concentration not given here
# Conditions: Bim peptide-Bfl-1 binding, fluorescence
# Sequence of Bcl-2-related protein A1 (Homo sapiens) (Q16548 whole entry, looked up): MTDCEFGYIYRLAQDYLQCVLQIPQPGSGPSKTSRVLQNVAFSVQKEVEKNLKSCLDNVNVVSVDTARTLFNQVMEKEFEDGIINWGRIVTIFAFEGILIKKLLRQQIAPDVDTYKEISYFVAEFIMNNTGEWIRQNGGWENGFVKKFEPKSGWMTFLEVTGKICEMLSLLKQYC
row,Compound,percent span (inhibition)
1,O=C(Nc1ccccn1)c1cc2ccccc2o1,inactive
2,CCN(CC)c1ccc(NC(=O)COc2ccccc2C)cc1S(=O)(=O)Nc1ccccc1OC,inactive
3,Cc1cc(NC(=O)CCSc2ccccc2)ccc1Br,inactive
4,Cc1ccc(/C=C2\CCCC3=C2NC(=S)NC3c2ccc(C)cc2)cc1 (stereo not drawn),inactive
5,O=c1nc2c(O)cccn2c2c1c(=O)[nH]c1ccccc12,inactive
6,COc1ccc2nc(C)cc(SCC(=O)N/N=C/c3ccc(O)cc3O)c2c1,inactive
7,COCCn1nnnc1CN(Cc1ccco1)Cc1cc2cc3c(cc2[nH]c1=O)OCO3,inactive
8,Cc1ccc(C(NC(=O)C(C)C)c2cc([N+](=O)[O-])c3cccnc3c2O)cc1 (stereo not drawn),inactive
9,CCN1CCN(c2cc(C)c3cc(NC(=S)N4CCN(c5ccccc5)CC4)ccc3n2)CC1,inactive
10,CCn1c(SCC(=O)Nc2ccccc2-c2ccccc2)nnc1-c1ccoc1C,inactive
11,O=C(Cn1cncc1-c1ccc([N+](=O)[O-])cc1)Nc1ccccc1F,inactive
12,O=C(O)CC/C(=C\c1cc([N+](=O)[O-])ccc1Cl)c1nc2ccccc2s1,inactive
13,Cc1ccc(-c2cc(C(=O)OCC(=O)N(C)C3CCS(=O)(=O)C3)c3ccccc3n2)o1 (stereo not drawn),inactive
14,O=S1(=O)N=C(N(CCO)/N=C/c2ccncc2)c2ccccc21,inactive
15,Cc1ccc(-c2cc(C(=O)N3CCN(c4ncccn4)CC3)c3cc(Br)ccc3n2)o1,inactive
16,COCCNc1nc(=S)[nH]c2cc(OC)c(OC)cc12,inactive
17,O=C(NCCN1CCOCC1)c1cc(Cl)ccc1[N+](=O)[O-],inactive
18,Cc1cccc(C(=O)N2CCC(c3nc(-c4ccc(S(=O)(=O)N5CCOCC5)cc4)no3)CC2)c1,inactive
19,COc1ccc(N2C(=O)C(Cl)=C(Nc3ccccc3O)C2=O)cc1,inactive
20,O=C(CCl)Nc1cccc2ncccc12,inactive
21,CNC(=S)N(Cc1cccs1)Cc1cc2ccc(OC)cc2[nH]c1=O,inactive
22,CCC(CC)C(=O)Nc1cccc(S(=O)(=O)c2cccc(NC(=O)C(CC)CC)c2)c1,inactive
23,COc1ccc(-n2c(SCC(=O)Nc3ccc(C(=O)O)cc3)nnc2-c2cccs2)cc1,inactive
24,Cc1ccccc1-n1nc(SCC(=O)O)sc1=S,inactive
25,Cc1cc(-c2csc(N)n2)c(C)n1CCC(C)C,inactive

row,Compound,percent span (inhibition)
1,CCOC(=O)CSc1nnc(-c2cccc(Cl)c2)n1CC,inactive
2,CCCn1c(N2CCN(C)CC2)nc2c1c(=O)[nH]c(=O)n2C,inactive
3,COc1ccc(NC(=O)/C(Cl)=C(/Cl)S(=O)Cc2ccccc2)cn1 (stereo not drawn),inactive
4,CC(C)CCN1CCN(Cc2cccc3cccnc23)CC1CCO (stereo not drawn),inactive
5,COc1ccc(CCNC(=O)c2cc(-c3ccccn3)nc3c(Cl)cccc23)cc1OC,inactive
6,O=C1NC(=S)S/C1=C/c1ccc(N2CCOCC2)o1,inactive
7,CCOC(=O)c1cccc(Nc2ncnc3ccccc23)c1,inactive
8,CCCc1nnc2n1N=C(c1ccc(-c3cc(Cl)ccc3Cl)o1)CS2,inactive
9,CN1CCS/C1=C/C=C1/SC(=S)N(Cc2ccccc2)C1=O,inactive
10,Cc1csc(Nc2ccccc2C(F)(F)F)n1,inactive
11,COc1ccc(-c2noc(COc3ccc4c(c3)OCO4)n2)cc1OC,inactive
12,CC[n+]1c(/C=C/C=C/N(C(C)=O)c2ccccc2)sc2ccccc21,inactive
13,Cc1ccnc(NS(=O)(=O)c2ccc(NC(=O)c3c(-c4ccccc4Cl)noc3C)cc2)n1,inactive
14,Cc1occc1C(=O)NNC(=S)NCc1ccccc1,inactive
15,O=C(c1cccc(Br)c1)N1CCN(c2cnn(-c3ccccc3)c(=O)c2Cl)CC1,inactive
16,CCN1CCN(CC(=O)c2c[nH]c3ccc(C)cc23)CC1,inactive
17,COc1cccc(NC(=O)CSc2nncn2N)c1,inactive
18,CCN(CC)CCN(C(=O)c1ccc(N2C(=O)CCC2=O)cc1)c1nc2cc3c(cc2s1)OCCO3,inactive
19,Cc1ccc(Nc2nc(C)cs2)cc1,inactive
20,COCCNC(=O)CN1CCC(NC(=O)Nc2ccccc2)CC1,inactive
21,Cn1c(N)c(C(=O)COC(=O)c2cc(-c3ccco3)nc3ccccc23)c(=O)n(Cc2ccccc2)c1=O,inactive
22,Cc1cc(N2CCN(C)CC2)nc2ccc(NC(=S)N3CCCCC3)cc12,inactive
23,Cc1[nH]n(C(N)=S)c(=O)c1N=Nc1ccc(S(=O)(=O)N2CCCCCC2)cc1,inactive
24,NC(=O)c1c(NC(=O)C2CCCO2)sc2c1CCCCC2 (stereo not drawn),inactive
25,O=C(Nc1nnc(SCc2ccccn2)s1)C1CC(=O)N(c2ccccc2)C1 (stereo not drawn),inactive

row,Compound,percent span (inhibition)
1,CCOc1ccc(NCc2ccccc2OCc2cccc(F)c2)cc1,inactive
2,C=CCSc1nc(N)c2c(C)c(C)sc2n1,inactive
3,COC(=O)c1ccc(C)c(NC(=O)CCNC(=O)c2ccc([N+](=O)[O-])cc2)c1,inactive
4,CC(=O)Nc1ccc(NC2=C(Cl)C(=O)c3ccccc3C2=O)cc1,inactive
5,CCc1cccc(NC(=O)COc2ccccc2)c1,inactive
6,CCOc1ccc(C2=Nn3c(nnc3-c3ccccn3)SC2)cc1,inactive
7,COc1ccc(NC(=O)COc2ncnc3ccccc23)cc1S(=O)(=O)N1CCOCC1,inactive
8,O=C(CC1NCCNC1=O)Nc1cccc([N+](=O)[O-])c1 (stereo not drawn),inactive
9,Cc1nc2cc(F)ccc2n1C1CCN(C(=O)c2c(F)cccc2F)CC1,inactive
10,FC(F)(F)c1ccc2c(c1)C1C=CCC1C(c1ccncc1)N2 (stereo not drawn),inactive
11,CC1C=CCC2C(=O)N(c3ccc(OC(=O)c4cccs4)cc3)C(=O)C12 (stereo not drawn),inactive
12,COc1c(F)c(F)c(C(=O)Nc2ccccc2N2CCN(C(=O)C(C)C)CC2)c(F)c1F,inactive
13,Cc1ccc(N=Cc2c(O)n(-c3ccc4c(c3)OCO4)c(=O)c3ccccc23)cc1,inactive
14,CCOc1ccc2nc(SCC(=O)N3c4ccccc4Sc4ccccc43)c(C#N)cc2c1,inactive
15,COc1cc(/C=N/Nc2nn3cnnc3c3ccccc23)ccc1O,inactive
16,CN1/C(=C\C(=O)Nc2ccc(Cl)cc2)C(C)(C)c2ccccc21,inactive
17,N#C/C(=C(/O)CN1CCN(c2ccccc2F)CC1)c1nc(-c2ccccc2)cs1,inactive
18,CCN(CC)c1ccc(-c2nn3c(-c4cccnc4)nnc3s2)cc1,inactive
19,CCOC(=O)c1sc(NC(=O)c2ccncc2)c(C#N)c1C,inactive
20,COc1ccc(C(=O)Nc2ccc(C(=O)OCC(=O)c3cccc4ccccc34)cc2)cc1,inactive
21,CCOc1cc(CNc2ccc(N3CCCCC3)cc2)cc(Br)c1OCC(=O)NC(C)(C)C,inactive
22,COc1ccc(-n2c(=O)c3ccccc3c3ccccc3c2=O)c(OC)c1,inactive
23,CN(C)C(=O)N1CCC(C(=O)NC2CCCCCCC2)CC1,inactive
24,COc1ccc(NC(=O)/C(C#N)=C/c2c(C)nn(-c3ccc(F)cc3)c2Cl)cc1Cl,inactive
25,CCOC(=O)c1nc(Nc2ccc(N3CCC(C)CC3)cc2)c2ccccc2n1,inactive

row,Compound,percent span (inhibition)
1,Cc1ccc(SCCC(=O)Nc2ccc(Br)c(C)c2)cc1,inactive
2,CC(=O)Nc1ccc2nc(CN3CCN(CC(C)C)C(CCO)C3)ccc2c1 (stereo not drawn),inactive
3,Cn1c(OCc2cccnc2)nc2c1c(=O)n(Cc1ccccc1)c(=O)n2C,inactive
4,COC(=O)c1sc(NC(=O)c2ccc(Cn3cc(Cl)cn3)o2)c(C#N)c1C,inactive
5,O=C(Nc1ccc(Cl)cn1)Nc1ccccc1F,inactive
6,Cc1nonc1NC(=O)CSc1nnc(-c2ccoc2C)n1C,inactive
7,Cc1cc[n+]2cc(-c3cccc([N+](=O)[O-])c3)c(-c3cccc([N+](=O)[O-])c3)cc2c1,inactive
8,COc1ccc(NC(=O)c2ccc(CN3CCN(c4ccccc4)CC3)cc2)cc1,inactive
9,O=C(c1ccc(CNS(=O)(=O)c2ccc(Br)cc2)cc1)N1CCCC1,inactive
10,CCOC(=O)C1(Cc2cccc(OC)c2)CCN(Cc2cccc(OC)c2OC)CC1,inactive
11,O=C(CSc1ccc2nnc(-c3ccncc3)n2n1)Nc1nccs1,inactive
12,CC(=O)c1ccc2c(c1)C1C=CCC1C(c1ccncc1)N2 (stereo not drawn),inactive
13,CCOC(=O)C1CCCN(c2ncnc3c2cnn3-c2cccc(C)c2)C1 (stereo not drawn),inactive
14,Cc1ccc(NC(=S)N2CCn3cccc3C2c2cccnc2)cc1 (stereo not drawn),inactive
15,CCOc1ccccc1/C=N/NC(=O)CNC(=O)COc1ccccc1,inactive
16,COc1ccc(C2CN(C)CC2C(=O)c2ccc(F)cc2)cc1Cl (stereo not drawn),inactive
17,COc1c(C)cc(Br)cc1C(=O)Nc1ccc(S(N)(=O)=O)cc1,inactive
18,O=C(COC(=O)c1ccccn1)NC1CCCCC1,inactive
19,Cc1cc(OCc2cn3cccnc3n2)ccc1Cl,inactive
20,CCOc1ccc(C2=Nn3c(nnc3-c3ccco3)SC2)cc1,inactive
21,Cn1cc(CN2C[C@]3(C)C[C@H]2CC(C)(C)C3)c(-c2ccc3c(c2)OCCO3)n1,inactive
22,Cc1cc(C)c2nc3nc(C)c(C)cc3c(N)c2c1,inactive
23,CC(C)n1nnnc1SCC(=O)N1CCN(C(=O)c2ccco2)CC1,inactive
